Source: patent US20260285918A1, “PEPTIDE FOR INHIBITING PROTEIN AGGREGATION AND PROTECTING PROTEIN ACTIVITY” (GWANGJU INSTITUTE OF SCIENCE AND TECHNOLOGY, priority 2023, published 2026)

Key:
[1] = test system: LDH (Lactate dehydrogenase); assay: LDH activity protection after dehydration-rehydration and freeze-thaw; format: biochemical; settings: for LDH activity protection rate: motif added at up to 1/10 of the BSA amount
Source text: Specifically, as illustrated in FIG. 6(c), considering the charge, hydrophobicity, and hydrophilicity of each amino acid in the CAHS motif 1 124-142 sequence, Y (Tyr), Q (Gln), E (Glu), V (Val), R (Arg), and L (Leu) in the amino acid sequence of CAHS motif 1, represented by SEQ ID NO: 2, were each mutated to alanine at one site.

[2] = test system: LDH (Lactate dehydrogenase); assay: Inhibition of LDH aggregation (absorption at 340 nm, light scattering) after dehydration-rehydration and freeze-thaw
Source text: In other words, protein aggregation is the main cause of loss of protein activity. Protein aggregation is induced during the process of freezing and thawing (freeze and thaw) or in a water-free environment (dehydration), which causes loss of protein activity.

[3] = test system: LDH (Lactate dehydrogenase); assay: LDH activity protection with temperature and time (storage); format: biochemical; settings: mass ratio 1:50
Experimental: CAHS motif 1 124-142, a stabilizer provided by the present invention, was mixed with LDH (lactate dehydrogenase), a target protein candidate for activity protection experiments, at a mass ratio of 1:50. The LDH protein activity was tested under various temperature and time conditions to determine the degree of protein activity protection.
Specifically, LDH protein activity was tested at temperatures of −20° C., 20° C., and 37° C., and at time intervals of 0, 1, 2, and 4 weeks.

[4] = Solubility comparison after dialysis; format: physicochemical; settings: 100 μM, dialysed at 4° C. for 18 hours in 20 mM potassium phosphate, 150 mM NaCl, pH 7.0
Experimental: First, CAHS motif 1 124-142 was obtained via peptide synthesis. CAHS motif 1 124-142 and the entire CAHS protein 1-229 were each dialysed at 4° C. for 18 hours in a buffer containing 20 mM potassium phosphate, 150 mM NaCl, pH 7.0, at a concentration of 100 μM, to compare their solubility.

| LDH activity preservation on storage ([3]; 20° C., 1 to 4 weeks) | LDH activity preservation on storage ([3]; 37° C., 1 to 4 weeks) | LDH activity preservation on storage ([3]; −20° C., 1 to 4 weeks) | Substance | LDH activity protection rate [1] | LDH aggregation ([2]; dehydration-rehydration) | LDH activity preservation on storage ([3]; all conditions: −20° C., 20° C., 37° C., 0, 1, 2, 4 weeks) | LDH activity protection compared between excipients [1] | LDH aggregation ([2]; freeze-thaw) | solubility [4] |
| --- | --- | --- | --- | --- | --- | --- | --- | --- | --- |
|  |  |  | Bovine Serum Albumin [BSA, reference compound] | 50-60% | barely prevented aggregation |  |  |  |  |
| well preserved | well preserved | well preserved | CAHS motif 1 124-142: 19-mer peptide, positions 124 to 142 of the CAHS protein, YRKQQEVEADKIRKELEKQ, obtained via peptide synthesis | 70-100% | reduced aggregation by more than half | effectively preserve protein activity under all temperature and time conditions | best protected the activity of the protein | effectively inhibits the aggregation of LDH | excellent solubility in water |
